Measured values: article PMC9203742 (Nature Communications, 2022)
Values joined by “and” are separate entries in the source; they are usually repeats but may differ in a detail not shown here. Identical values can stand only once.

Assays:
mGlu1 A59H/G266H mutant [1] = target: T1, mGlu1 A59H/G266H mutant (Rattus norvegicus, UniProt P23385, A59H/G266H); assay: Fura-2 Ca2+ imaging in HEK293 cells expressing mGlu1 A59H/G266H; assay type: cell-based; details: Fig.1e
T1 construct: expressed in transfected cells; host or cells: HEK293

[2] = test system: mGlu1 construct not given; assay: Fura-2 Ca2+ imaging in HEK293 cells, source data Suppl Fig1, middle group (c9-c17); construct not given; assay type: cell-based, rat; details: single-cell values, cells #15-#20; middle group of third block
Text: (§1) Supplement 41467_2022_30828_MOESM6_ESM.zip/Ojima et al_source data_Suppl Fig.xlsx, sheet "Suppl Fig1" | column: Glu; NiCl2; CuCl2; ZnCl2; CdCl2; Na2PdCl2; Pd(bpy)

mGlu1 P57H/N264H mutant = target: T2, mGlu1 P57H/N264H mutant (Rattus norvegicus, UniProt P23385, N264H/P57H); assay: Fura-2 Ca2+ imaging in HEK293 cells expressing mGlu1 P57H/N264H; assay type: cell-based
T2 construct: expressed in transfected cells; host or cells: HEK293

mGlu1 E60H/N264H mutant = target: T3, mGlu1 E60H/N264H mutant (Rattus norvegicus, UniProt P23385, E60H/N264H); assay: Fura-2 Ca2+ imaging in HEK293 cells expressing mGlu1 E60H/N264H; assay type: cell-based
T3 construct: expressed in transfected cells; host or cells: HEK293

mGlu1 A59H/A265H mutant [3] = target: T4, mGlu1 A59H/A265H mutant (Rattus norvegicus, UniProt P23385, A265H/A59H); assay: Fura-2 Ca2+ imaging in HEK293 cells expressing mGlu1 A59H/A265H; assay type: cell-based; details: single-cell values
T4 construct: expressed in transfected cells; host or cells: HEK293

[4] = test system: mGlu1 construct not given; assay: Fura-2 Ca2+ imaging in HEK293 cells, source data Suppl Fig1, right group (c18-c26); construct not given; assay type: cell-based, rat; details: single-cell values, cells #15-#20; right group of third block
Text: as §1

[5] = test system: HEK293 cells, vector control; assay: Fura-2 Ca2+ imaging in HEK293 cells transfected with control vector (Vec); assay type: cell-based; details: Fig.1e
Text: Supplement 41467_2022_30828_MOESM6_ESM.zip/Ojima et al_source data_Main Figure.xlsx, sheet "Fig.1e" | column: Vec

WT mGlu1 = target: T5, WT mGlu1 (Rattus norvegicus, UniProt P23385); assay type: cell-based
T5 construct: expressed in transfected cells; host or cells: HEK293

[6] = test system: mGlu1 construct not given; assay: Fura-2 Ca2+ imaging in HEK293 cells, source data Suppl Fig1, left group (c0-c8); construct not given; assay type: cell-based, rat; details: single-cell values, cells #15-#20; left group of third block
Text: as §1

mGlu1 A59H/N264H mutant = target: T6, mGlu1 A59H/N264H mutant (Rattus norvegicus, UniProt P23385, A59H/N264H); assay: Fura-2 Ca2+ imaging in HEK293 cells expressing mGlu1 A59H/N264H; assay type: cell-based
T6 construct: expressed in transfected cells; host or cells: HEK293

[7] = test system: HEK293 cells, vector control; assay: Fura-2 Ca2+ imaging in HEK293 cells transfected with control vector (Vec); assay type: cell-based; details: single-cell values #1-#20
mGlu1 K61H/N264H mutant = target: T7, mGlu1 K61H/N264H mutant (Rattus norvegicus, UniProt P23385, K61H/N264H); assay: Fura-2 Ca2+ imaging in HEK293 cells expressing mGlu1 K61H/N264H; assay type: cell-based
T7 construct: expressed in transfected cells; host or cells: HEK293

mGlu1 A59H/A265H mutant [8] = target: T4, mGlu1 A59H/A265H mutant; assay: Fura-2 Ca2+ imaging in HEK293 cells expressing mGlu1 A59H/A265H; assay type: cell-based; details: Fig.1e
mGlu1 A59H/G266H mutant [9] = target: T1, mGlu1 A59H/G266H mutant; assay: Fura-2 Ca2+ imaging in HEK293 cells expressing mGlu1 A59H/G266H; assay type: cell-based; details: single-cell values
mGlu1 P58H/N264H mutant = target: T8, mGlu1 P58H/N264H mutant (Rattus norvegicus, UniProt P23385, N264H/P58H); assay: Fura-2 Ca2+ imaging in HEK293 cells expressing mGlu1 P58H/N264H; assay type: cell-based
T8 construct: expressed in transfected cells; host or cells: HEK293

[10] = target: T9, cell-surface mGlu1 in cerebellar slices of mGlu1^CBC/CBC mice (Mus musculus, UniProt P97772, N264H); assay: Confocal live imaging of cell-surface mGlu1 with FITM-Cy3 in acute cerebellar slices, mGlu1^CBC/CBC; assay type: binding
T9 construct: from tissue; host or cells: acute cerebellar slices of homozygous mGlu1(N264H) knock-in (mGlu1CBC/CBC) mice
Method: (§2) Sagittal cerebellar slices were cut with a microslicer (Linear slicer Pro7; DOSAKA EM) in cutting solution buffer and then incubated in ACSF gassed with 5% CO2 and 95% O2 at room temperature.
(§3) The cerebellar slices prepared from mGlu1^+/+ or mGlu1^CBC/CBC mice, were incubated with 10 nM FITM-Cy3 and 10 µg/mL Hoechst33342 for 30 min at room temperature in a humidified atmosphere of 5% CO2 and 95% O2. As a negative control, the cerebellar slices were incubated with 10 nM FITM-Cy3, 10 µg/mL Hoechst33342, and 500 nM FITM. Then, the slices were subjected to confocal live imaging using a confocal microscope (LSM900, Carl Zeiss). The fluorescence intensity of Cy3 at the molecular layer were quantified by ZEN blue software (Carl Zeiss).

mGlu1(N264H) mutant = target: T10, mGlu1(N264H) mutant (Rattus norvegicus, UniProt P23385, N264H); assay: Fura-2 Ca2+ imaging in HEK293 cells expressing mGlu1(N264H); assay type: cell-based; details: 10 µM LY367385, 1 µM FITM, 10 µM YM254890 or 1 µM U73122
T10 construct: expressed in transfected cells; host or cells: HEK293

primary cortical neurons = assay: Fura-2 Ca2+ imaging (abnormal Ca2+ response) in cultured cortical neurons; details: co-treated 30 µM LY367385, 1 µM FITM or 10 µM U73122
[11] = target: T11, cell-surface mGlu1 in cerebellar slices of mGlu1^+/+ mice (Mus musculus, UniProt P97772); assay: Confocal live imaging of cell-surface mGlu1 with FITM-Cy3 in acute cerebellar slices, mGlu1^+/+; assay type: binding
T11 construct: from tissue; host or cells: acute cerebellar slices of mGlu1+/+ (C57BL/6J) mice
Method: as §2, §3

[12] = 10 nM FITM-Cy3 with excess (500 nM) FITM
[13] = mGlu1CBC/CBC, relative to Ave of mGlu1+/+ FITM (-) = 1
[14] = mGlu1+/+, relative to Ave of mGlu1+/+ FITM (-) = 1

T1 sequence (P23385 19-1199 A59H/G266H): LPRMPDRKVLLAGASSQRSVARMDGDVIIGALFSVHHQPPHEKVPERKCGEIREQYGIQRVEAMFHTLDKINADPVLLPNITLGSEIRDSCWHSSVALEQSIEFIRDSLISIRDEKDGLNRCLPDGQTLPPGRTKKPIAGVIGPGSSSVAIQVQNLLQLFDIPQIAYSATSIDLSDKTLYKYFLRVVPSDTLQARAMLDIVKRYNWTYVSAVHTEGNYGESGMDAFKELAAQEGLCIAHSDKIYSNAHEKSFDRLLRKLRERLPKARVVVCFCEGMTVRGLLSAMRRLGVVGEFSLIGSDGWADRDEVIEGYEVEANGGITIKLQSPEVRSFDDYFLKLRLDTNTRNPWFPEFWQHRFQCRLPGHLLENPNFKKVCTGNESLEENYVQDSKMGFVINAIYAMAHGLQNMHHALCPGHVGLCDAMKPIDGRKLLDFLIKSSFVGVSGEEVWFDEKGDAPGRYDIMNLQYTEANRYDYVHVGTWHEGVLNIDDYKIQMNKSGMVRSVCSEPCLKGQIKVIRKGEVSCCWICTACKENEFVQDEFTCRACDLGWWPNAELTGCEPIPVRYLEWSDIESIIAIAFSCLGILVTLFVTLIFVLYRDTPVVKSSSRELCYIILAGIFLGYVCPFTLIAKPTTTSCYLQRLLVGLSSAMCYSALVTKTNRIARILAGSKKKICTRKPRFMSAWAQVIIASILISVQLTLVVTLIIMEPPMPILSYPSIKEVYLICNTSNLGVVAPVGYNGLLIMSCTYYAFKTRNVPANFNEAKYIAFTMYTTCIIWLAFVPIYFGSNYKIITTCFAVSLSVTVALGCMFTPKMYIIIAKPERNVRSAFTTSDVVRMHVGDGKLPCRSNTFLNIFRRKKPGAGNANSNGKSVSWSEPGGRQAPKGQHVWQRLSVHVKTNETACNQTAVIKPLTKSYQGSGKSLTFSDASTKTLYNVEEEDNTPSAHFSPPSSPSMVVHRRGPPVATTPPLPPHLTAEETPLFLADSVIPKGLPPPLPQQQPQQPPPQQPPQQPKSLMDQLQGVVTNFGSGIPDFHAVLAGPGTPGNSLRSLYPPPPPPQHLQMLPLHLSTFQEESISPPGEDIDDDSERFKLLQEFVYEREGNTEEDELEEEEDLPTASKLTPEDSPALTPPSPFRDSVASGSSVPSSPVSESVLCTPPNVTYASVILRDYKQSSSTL
T2 sequence (P23385 19-1199 P57H/N264H): as the sequence (P23385 19-1199 A59H/G266H) above, with P39H, H41A, N246H, H248G counted along it
T3 sequence (P23385 19-1199 E60H/N264H): as the sequence (P23385 19-1199 A59H/G266H) above, with H41A, E42H, N246H, H248G counted along it
T11 sequence (P97772 19-1199 limits assumed): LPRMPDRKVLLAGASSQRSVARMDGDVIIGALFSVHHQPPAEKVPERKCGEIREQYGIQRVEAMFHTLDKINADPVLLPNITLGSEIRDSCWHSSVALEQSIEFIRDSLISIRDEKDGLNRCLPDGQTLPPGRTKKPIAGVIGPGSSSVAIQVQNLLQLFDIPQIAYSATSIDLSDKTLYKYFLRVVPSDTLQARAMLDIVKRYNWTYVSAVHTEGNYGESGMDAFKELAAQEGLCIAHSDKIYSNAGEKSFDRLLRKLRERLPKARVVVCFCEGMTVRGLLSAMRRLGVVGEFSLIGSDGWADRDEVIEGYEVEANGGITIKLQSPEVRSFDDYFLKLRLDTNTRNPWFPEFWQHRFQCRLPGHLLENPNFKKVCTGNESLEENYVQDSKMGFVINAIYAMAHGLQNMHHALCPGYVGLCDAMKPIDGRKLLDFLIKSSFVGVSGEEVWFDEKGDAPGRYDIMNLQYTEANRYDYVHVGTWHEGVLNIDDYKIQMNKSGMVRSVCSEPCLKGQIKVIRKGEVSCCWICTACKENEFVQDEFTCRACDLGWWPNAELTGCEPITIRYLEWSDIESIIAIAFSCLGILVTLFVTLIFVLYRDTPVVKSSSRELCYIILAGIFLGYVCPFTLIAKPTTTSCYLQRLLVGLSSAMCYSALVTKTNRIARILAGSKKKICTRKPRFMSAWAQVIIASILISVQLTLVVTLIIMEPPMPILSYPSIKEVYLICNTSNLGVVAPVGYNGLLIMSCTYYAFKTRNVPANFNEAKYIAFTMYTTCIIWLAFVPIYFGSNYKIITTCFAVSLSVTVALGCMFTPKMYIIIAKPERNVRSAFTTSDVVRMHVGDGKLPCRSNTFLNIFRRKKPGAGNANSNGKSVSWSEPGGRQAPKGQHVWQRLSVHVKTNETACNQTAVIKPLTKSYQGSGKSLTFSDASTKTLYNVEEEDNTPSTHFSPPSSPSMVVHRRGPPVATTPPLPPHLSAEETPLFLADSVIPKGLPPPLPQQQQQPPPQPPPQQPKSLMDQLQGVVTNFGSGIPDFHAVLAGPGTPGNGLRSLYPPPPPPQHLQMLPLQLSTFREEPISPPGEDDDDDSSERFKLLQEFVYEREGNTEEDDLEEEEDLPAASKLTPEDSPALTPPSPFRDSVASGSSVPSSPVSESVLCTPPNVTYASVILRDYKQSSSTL
T4 sequence (P23385 19-1199 A59H/A265H): as the sequence (P23385 19-1199 A59H/G266H) above, with A247H, H248G counted along it
T7 sequence (P23385 19-1199 K61H/N264H): as the sequence (P23385 19-1199 A59H/G266H) above, with H41A, K43H, N246H, H248G counted along it
T6 sequence (P23385 19-1199 A59H/N264H): as the sequence (P23385 19-1199 A59H/G266H) above, with N246H, H248G counted along it
T9 sequence (P97772 19-1199 N264H limits assumed): as the sequence (P97772 19-1199 limits assumed) above, with N246H counted along it
T5 sequence (P23385 19-1199): as the sequence (P23385 19-1199 A59H/G266H) above, with H41A, H248G counted along it
T8 sequence (P23385 19-1199 P58H/N264H): as the sequence (P23385 19-1199 A59H/G266H) above, with P40H, H41A, N246H, H248G counted along it
T10 sequence (P23385 19-1199 N264H): as the sequence (P23385 19-1199 A59H/G266H) above, with H41A, N246H, H248G counted along it

SMILES: [Cl][Cd][Cl] [CdCl2]
- Ca2+ response (delta ratio), A59H/G266H (mGlu1 A59H/G266H mutant [1]): 0.001928
- Ca2+ response of individual cells (source data, sheet Suppl Fig1) [2]: 0.01055 and 0.01355 and -0.009131 and -0.01706 and 0.009777 and -0.01645
- Ca2+ response (delta ratio), P57H/N264H (mGlu1 P57H/N264H mutant; Fig.1e): 0.03091
- Ca2+ response of individual cells (source data Suppl Fig1), P57H/N264H (mGlu1 P57H/N264H mutant; single-cell values #1-#20, P57H/N264H): -0.01735 and -0.005323 and -0.01104 and -0.01126 and -0.0097 and -0.003008 and -0.01663 and -0.0067 and -0.01865 and 0.6823 and 0.01155 and -0.0096 and 0.03494 and -0.09688 and -0.01634 and 0.024 and 0.009592 and -0.004469 and 0.09844 and -0.01566
- Ca2+ response (delta ratio), E60H/N264H (mGlu1 E60H/N264H mutant; Fig.1e): -0.01186
- Ca2+ response of individual cells (source data Suppl Fig1), E60H/N264H (mGlu1 E60H/N264H mutant; single-cell values #1-#20, E60H/N264H): -0.009869 and -0.0139 and -0.008638 and -0.01472 and -0.009062 and -0.006669 and -0.004677 and -0.01493 and -0.004954 and 0.001138 and -0.005708 and -0.002215 and 0.01407 and 0.02235 and -0.01174 and -0.009823 and -0.008654 and -0.007631 and -0.02142 and -0.1201
- Ca2+ response of individual cells (source data Suppl Fig1), A59H/A265H (mGlu1 A59H/A265H mutant [3]): 0.002869 and 0.004277 and -0.0003846 and 0.01228 and 0.01648 and -0.01175 and -0.03786 and 0.01586 and 0.002777 and 0.3308 and 0.2114 and -0.005654 and -0.02447 and 0.0205
- Ca2+ response of individual cells (source data, sheet Suppl Fig1) [4]: 0.03353 and 0.009331 and 0.006908 and 0.01689 and -0.009408 and 0.005315
- Ca2+ response (delta ratio), Vec [5]: -0.03216
- Ca2+ response (delta ratio), WT (WT mGlu1; Fig.1e): 0.005362
- Ca2+ response of individual cells (source data Suppl Fig1), WT (WT mGlu1; single-cell values #1-#20, WT): 0.0129 and 0.04075 and 0.009069 and 0.006385 and -0.009131 and -0.006215 and 0.2594 and 0.005608 and -0.007808 and -0.007346 and 0.0007769 and -0.1317 and -0.001 and -0.06408 and -0.004269 and 0.01558 and -0.01997 and 0.01184 and 0.001662 and -0.005277
- Ca2+ response of individual cells (source data, sheet Suppl Fig1) [6]: -0.005954 and 0.01795 and 0.005315 and -0.02397 and -0.001754 and -0.003654
- Ca2+ response (delta ratio), A59H/N264H (mGlu1 A59H/N264H mutant; Fig.1e): 0.02484
- Ca2+ response of individual cells (source data Suppl Fig1), A59H/N264H (mGlu1 A59H/N264H mutant; single-cell values #1-#20, A59H/N264H): 0.2588 and -0.01875 and -0.0009538 and 0.004669 and -0.003354 and -0.0081 and -0.03695 and -0.009438 and -0.004808 and -0.01072 and -0.01152 and -0.03409 and 0.4867 and -0.01683 and -0.02968 and -0.006508 and -0.0288 and -0.01271 and -0.01325 and -0.006908
- Ca2+ response of individual cells (source data Suppl Fig1), Vec [7]: -0.01042 and -0.01834 and -0.01502 and -0.05052 and -0.04072 and -0.03065 and -0.02875 and -0.03001 and -0.006638 and -0.04038 and -0.04515 and -0.04559 and -0.05998 and -0.01618 and -0.0239 and -0.03979 and -0.02847 and -0.03687 and -0.04005 and -0.03582
- Ca2+ response (delta ratio), K61H/N264H (mGlu1 K61H/N264H mutant; Fig.1e): 0.01695
- Ca2+ response of individual cells (source data Suppl Fig1), K61H/N264H (mGlu1 K61H/N264H mutant; single-cell values, K61H/N264H): 0.003946 and -0.03622 and -0.01614 and -0.01244 and -0.01964 and -0.05083 and -0.008715 and -0.008331 and -0.02813 and 0.002531 and -0.03307 and -0.01172 and 0.5817 and -0.01188
- Ca2+ response (delta ratio), A59H/A265H (mGlu1 A59H/A265H mutant [8]): 0.02642
- Ca2+ response of individual cells (source data Suppl Fig1), A59H/G266H (mGlu1 A59H/G266H mutant [9]): -0.01723 and 0.01558 and 0.01066 and 0.005608 and 0.01182 and 0.0279 and -0.1123 and -0.0058 and -0.01721 and 0.02262 and 0.01814 and -0.006169 and -0.01936 and 0.04175
- Ca2+ response (delta ratio), P58H/N264H (mGlu1 P58H/N264H mutant; Fig.1e): -0.005715
- Ca2+ response of individual cells (source data Suppl Fig1), P58H/N264H (mGlu1 P58H/N264H mutant; single-cell values #1-#20, P58H/N264H): 0.0003 and -0.006238 and 0.002354 and -0.001808 and -0.01828 and -0.02019 and -0.005077 and -0.009385 and -0.005592 and -0.02068 and -0.009223 and 0.09017 and -0.003262 and -0.06371 and -0.003885 and -0.002246 and -0.002192 and 0.0005231 and -0.03079

SMILES: CC(C)Nc1cc(-c2csc(N(C)C(=O)c3ccc(F)cc3)n2)ncn1 [FITM]
- Competition of FITM-Cy3 fluorescence in the molecular layer [10, 12]: disappearance of fluorescence
- FITM-Cy3 signal with FITM (+), Ave (Fig.5d) [10, 13]: 0.1786
- FITM-Cy3 signal with FITM (+), individual values #1-#5 (Fig.5d) [10, 13]: 0.1218 and 0.08484 and 0.2076 and 0.2159 and 0.2628
- Effect of pre-treated inhibitor on 10 µM Pd(bpy)-induced Ca2+ responses (mGlu1(N264H) mutant): inhibited
- Effect of inhibitor on 30 µM Pd(bpy)-induced [Ca2+]i elevation (primary cortical neurons): suppressed by neither
- Competition of FITM-Cy3 fluorescence in the molecular layer [11, 12]: disappearance of fluorescence
- FITM-Cy3 signal with FITM (+), Ave (Fig.5d) [11, 14]: 0.2072
- FITM-Cy3 signal with FITM (+), individual values #1-#5 (Fig.5d) [11, 14]: 0.08371 and 0.2036 and 0.1822 and 0.2639 and 0.3024
